The text below walks through data of US20040162353A1 (priority 2000, published 2004).

Where “and” joins values, the source holds several entries; their conditions need not be identical. Equal values may be shown once. Entries after “also recorded” stand apart in the source; their conditions may differ.

In data set [1] the test system is PSMA messenger RNA in LNCaP prostate cancer cell line. To be noted: LNCaP cells after exposure to DHT; cited from earlier work.
For data set [2], the target named is T1, ODC (Homo sapiens, UniProt P11926).
T1 sequence (P11926 1-461): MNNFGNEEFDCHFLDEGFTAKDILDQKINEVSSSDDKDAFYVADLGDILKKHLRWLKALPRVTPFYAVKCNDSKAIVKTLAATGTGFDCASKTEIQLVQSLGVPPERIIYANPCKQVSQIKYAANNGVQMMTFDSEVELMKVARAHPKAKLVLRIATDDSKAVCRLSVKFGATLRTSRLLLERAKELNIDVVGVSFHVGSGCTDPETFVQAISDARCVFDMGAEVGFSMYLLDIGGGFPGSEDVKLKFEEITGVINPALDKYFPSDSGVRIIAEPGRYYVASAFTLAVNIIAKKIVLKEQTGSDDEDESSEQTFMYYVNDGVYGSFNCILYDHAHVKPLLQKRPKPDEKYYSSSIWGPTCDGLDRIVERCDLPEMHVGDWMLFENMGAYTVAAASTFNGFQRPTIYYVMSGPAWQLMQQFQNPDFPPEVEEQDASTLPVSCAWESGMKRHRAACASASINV
To be noted: concentrations from 0.6 μM to 80 μM; three separate studies; cited from earlier work.

In data set [3] the test system is polyamines (putrescine, spermidine, spermine) in the human prostate. The experiment in a line: Prostate core biopsy polyamine content before and after 28 days of oral DFMO. To be noted: oral DFMO 0.5 gm/m^2 for 28 days. It counts as in vivo. An excerpt: This protocol was approved by the investigational review board of the University of California Irvine and the Long Beach Veterans Administration Medical Center. Men between the ages of 50 and 85, who were undergoing a trans-rectal prostate needle biopsy for either an elevated PSA or abnormal rectal exam, signed a written consent to undergo four additional core needle biopsies of the peripheral zone at the time of their, routine extant biopsy. The additional four biopsies were immediately frozen liquid nitrogen and stored in the minus 70-degree freezer. The […] biopsy was sent to Pathology for routine analysis. […] Patients were monitored for side effects using questionnaires and interview techniques. Coagulation parameters were carefully assessed prior to surgery. In the operating room just prior to the surgical procedure four trans-rectal core biopsies of the peripheral zone were taken and frozen. The pre and post DFMO specimens were sent together to Arizona on dry ice for histology and polyamine analysis. Radical prostatectomy specimens were staged according to the TMN updated 1997 staging system (American Joint Committee on Cancer 1997). To determine prostate core polyamine contents, cores were first thawed, washed in phosphate buffered saline (PBS) and weighted. Samples were then minced in 0.2 N perchloric acid and sonicated to disrupt cellular material. Samples were centrifuged at 2,000×g for 5 minutes to separate acid soluble and insoluble fractions. The acid soluble fraction was evaluated for polyamine contents, using reverse-phase, ion-pared high performance liquid chromatography (PHLC) methods, as described elsewhere ([…] et al. 1994; […] et al 1994; […] et al. 1998). Briefly, polyamines are separated on a C18 B Ondapak column, derivatized with […] separation and detected by absorption of the derivatized material at 750 nm. Mean, median, and range for polyamine levels are reported in nmol/mg protein. The limit of detection of our method is 0.01 nmol/mg. Histological Changes were assessed by bright field microscopy methods. Pre- and post DFMO polyamine values were compared using the Wilcoxon matched-pairs signed rank test. Thus, for each patient we were able to take into account both the magnitude and the direction of changes in polyamines due to DFMO.

A short description of data set [4]: Side effects and coagulation parameters in men taking oral DFMO. The data set is classed as in vivo, human. An excerpt: (§1) This protocol was approved by the investigational review board of the University of California Irvine and the Long Beach Veterans Administration Medical Center. Men between the ages of 50 and 85, who were undergoing a trans-rectal prostate needle biopsy for either an elevated PSA or abnormal rectal exam, signed a written consent to undergo four additional core needle biopsies of the peripheral zone at the time of their, routine extant biopsy. The additional four biopsies were immediately frozen liquid nitrogen and stored in the minus 70-degree freezer. The […] biopsy was sent to Pathology for routine analysis. […] Patients were monitored for side effects using questionnaires and interview techniques. Coagulation parameters were carefully assessed prior to surgery. In the operating room just prior to the surgical procedure four trans-rectal core biopsies of the peripheral zone were taken and frozen. The pre and post DFMO specimens were sent together to Arizona on dry ice for histology and polyamine analysis. Radical prostatectomy specimens were staged according to the TMN updated 1997 staging system (American Joint Committee on Cancer 1997).

Data set [5] has as its system PSA. The experiment in a line: Serum PSA in men taking oral DFMO. The data set is classed as in vivo, human.
Description: as §1

For data set [6], the system named is matrilysin expression in LNCaP human prostate cancer derived cells. As to the kind of experiment: IL-1β-induced matrilysin expression in LNCaP cells. The data set is classed as cell-based. The text has this:
As indicated earlier, DFMO acts late in the tumor promotion stage of epithelial carcinogenesis.

Data set [7] deals with T2, prostatic ODC (Rattus norvegicus, UniProt P09057).
T2 construct: from tissue; host or cells: rat prostate (animals treated in vivo with DFMO)
T2 sequence (P09057 1-461): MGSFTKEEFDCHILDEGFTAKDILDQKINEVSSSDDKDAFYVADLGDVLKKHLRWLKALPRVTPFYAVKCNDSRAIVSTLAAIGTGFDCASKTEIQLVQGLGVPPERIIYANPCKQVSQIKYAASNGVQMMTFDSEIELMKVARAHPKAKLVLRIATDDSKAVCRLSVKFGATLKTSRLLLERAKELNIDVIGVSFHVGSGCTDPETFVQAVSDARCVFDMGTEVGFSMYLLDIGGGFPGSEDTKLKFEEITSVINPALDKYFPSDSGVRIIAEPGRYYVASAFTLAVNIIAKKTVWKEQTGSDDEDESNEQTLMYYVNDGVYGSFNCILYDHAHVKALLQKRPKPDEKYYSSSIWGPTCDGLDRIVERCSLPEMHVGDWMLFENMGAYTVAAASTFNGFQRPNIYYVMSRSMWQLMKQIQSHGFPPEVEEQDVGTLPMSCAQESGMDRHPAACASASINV
To be noted: cited from earlier work.

Data set [8] deals with polyamines in rat prostate. To be noted: two weeks of 100 mg/kg DFMO, cited from earlier work.
Data set [9] deals with human prostate polyamine levels and ODC activity. To be noted: cited from earlier work.
Data set [10] concerns mouse epidermis. To be noted: topically applied five percent solution of DFMO; cited from earlier work.
In data set [11] the test system is cutaneous spermine. To be noted: ten percent DFMO cream; ten patients suffering from psoriasis; cited from earlier work.
In data set [12] the test system is tumors harboring Ki-ras mutations. To be noted: AOM-treated rats; reduced from 90%; cited from earlier work.
The test system of data set [13] is prostate tumor. To be noted: rat, in vivo, ip; cited from earlier work.
Data set [14] has as its system prostate cancer. To be noted: one year of Proscar; 1 of 25 men with no treatment; p=0.025; cited from earlier work.
Data set [15] concerns prostate cancer. To be noted: oral fenretinide; 22 men at high risk; trial closed early; cited from earlier work.
Where [16] appears, read: oral DFMO 0.5 gm/m^2, about 28 days.
Where [17] appears, read: two weeks of DFMO 0.5 gm/m^2 orally.

With `C[C@]12CCC(=O)C[C@@H]1CC[C@@H]1[C@@H]2CC[C@]2(C)[C@@H](O)CC[C@@H]12` [5-α-dihydroxytestosterone], the “down-regulation of PSMA mRNA” value in [1] was 8-10 fold.

Turning to `NCCC[C@@](N)(C(=O)O)C(F)F` [D-DFMO], the “inhibition of ODC activity” value in data set [2] is “inhibitory”.

With `NCCC[C@](N)(C(=O)O)C(F)F` [DFMO, alpha-difluoromethylornithine], the “range of spermine level after DFMO” value in [3] (n=9) is 3.24 to 25.58 nmol/mg. In [3] (n=9, p=0.004), the “spermidine average percent decrease from baseline” value was 73.6% and 74%; the “spermine average decrease from baseline” value was 50.8% and 51%. Moreover, the “average level of spermine after DFMO” value in [3] (n=9, pre-DFMO average 29.14) is listed as 14.33 nmol/mg. Further, in data set [3] (n=9, pre-DFMO median 28.85), the “median level of spermine after DFMO” value came to 17.40 nmol/mg. In [3] (n=9, pretreatment average 1.21), the “average level of spermidine after therapy” value was determined as 0.32 nmol/mg. Moreover, the “median level of spermidine after therapy” value in [3] (n=9, pretreatment median 0.81) is recorded as 0.21 nmol/mg. In addition, the “putrescine level after DFMO” value in data set [3] (prostate core biopsy, all nine men, detection limit 0.01 nmol/mg) is given as “undetectable”. Further, the “putrescine average decrease from baseline” value in data set [3] (six men with pre-DFMO putrescine ≧0.01, p=0.031) was 97.6% and 98%. Besides, in [4] (setting [16]), the “bleeding time prior to surgery” value is recorded as “not altered” and the “change in platelet counts or protime” value was “no clinically significant change”. The “men reporting side effects” value in [4] (oral DFMO 0.5 gm/m^2, average 28.2 days, grade 0 to 1) is “four men”. Also, the “PSA change on DFMO, patients with malignant pathology” value in [5] (five patients, increase in patients 3,8,9) is on record as “increased in 3 of 5”. In addition, the “PSA change on DFMO, patients with final benign pathology” value in [5] (four patients (1,4,5,7), pre-biopsy or pre-DFMO PSA vs PSA on DFMO) is on record as “decreased in each patient”. The “Pre-op PSA” value in data set [5] (individual patients 1-9, drawn while on DFMO) was 3.7 ng/ml and 7.5 ng/ml and 2.5 ng/ml and 1.4 ng/ml and 5 ng/ml and 2.3 ng/ml and 6.8 ng/ml and 35.5 ng/ml and 8.2* ng/ml. In addition, the “interleukin-1β (IL-1β)-induced matrilysin expression” value in data set [6] was “suppresses”. Besides, the “prostatic ODC reduction compared to control” value in [7] (by 24 hrs, 100 mg/kg every 12 hrs i.p.) is 50%. The “sustained suppression of prostatic ODC activity, remaining activity” value in data set [7] (throughout the two week study) is reported as 50 % of baseline activity. For the same compound, in data set [8] (control 202±37), the “putrescine in rat prostate after DFMO” value was 4 ± 4 nmol/g. The “spermine in rat prostate after DFMO” value in data set [8] (control 2968±293, no significant reduction) is given as 2741±346. For the same compound, in data set [8] (control 7334±193), the “spermidine in rat prostate after DFMO” value is recorded as 1188±289. Further, the toxicity result in data set [9] (fourteen men completed two weeks of DFMO) is reported as “no toxicity”. The “ODC activity, DFMO vs placebo” value in data set [9] (two weeks of DFMO 0.5 gm/m^2) is on record as “no differences”. Further, the “mean putrescine level in prostate cores” value in data set [9] (two weeks of DFMO 0.5 gm/m^2, placebo 1.95, p=0.03) is recorded as 1.43. In data set [9] (setting [17]), the “spermidine level, DFMO vs placebo” value is recorded as “no differences; also recorded: failed to detect any reduction” and the “spermine level, DFMO vs placebo” value is listed as “no differences; also recorded: failed to detect any reduction”. Also, the “spermine and spermidine levels” value in data set [10] is recorded as “not affected”. In data set [11], the “improvement in psoriatic lesions” value is on record as “marginal improvement” and the “reduction of cutaneous spermine levels” value is “sixty-six percent”. Also, the “inhibition of ODC activity” value in data set [2] was “inhibitory”. For the same compound, in data set [12], the “number of tumors harboring Ki-ras mutations” value is listed as 36%. Also, the systemic toxicity entry in data set [13] is reported as “no systemic toxicity”.

In the case of `NCCC[C@](N)(C(=O)O)C(F)F` [L-DFMO], the “inhibition of ODC activity” value in [2] was “inhibitory”.

In the case of `CC(C)(C)NC(=O)[C@H]1CC[C@H]2[C@@H]3CC[C@H]4NC(=O)C=C[C@]4(C)[C@H]3CC[C@]12C` [Proscar, finasteride], the “men with cancer diagnosed at one year follow up biopsy” value in [14] is 8 of 27.

Consider `CC1=C(/C=C/C(C)=C/C=C/C(C)=C/C(=O)Nc2ccc(O)cc2)C(C)(C)CCC1` [fenretinide], for which the “men with negative prestudy biopsies who developed malignancy while on study” value in [15] is on record as 8 men.

For the compound `CN1C(C(=O)Nc2ccccn2)=C(O)c2ccccc2S1(=O)=O` [piroxicam], the “number of tumors harboring Ki-ras mutations” value in data set [12] was 25%.
